Data: the NIST ThermoML archive (doi:10.1021/je700140j)
± gives the expanded uncertainty stated by the source.

Assays:
[1] = for surface tension liquid-gas: Ring tensiometer; for mass density / viscosity: 100.8 kPa, Liquid
[2] = refractive index (Na D-line) (dimensionless); conditions: 101.33 kPa, Liquid, Standard Abbe refractometry
[3] = xn = mol fraction of the nth substance listed; conditions: x1 = 1; for surface tension liquid-gas: Ring tensiometer; for mass density / viscosity: 100.8 kPa, Liquid
[4] = refractive index (Na D-line) (dimensionless); xn = mol fraction of the nth substance listed; conditions: 100.8 kPa, Liquid, Standard Abbe refractometry, x1 = 1

Row | SMILES | surface tension liquid-gas ([1]; 298.15 K) [mN/m] | mass density ([1]; 298.15 K) [kg/m3] | viscosity ([1]; 298.15 K) [mPa·s] | surface tension liquid-gas ([1]; 308.15 K) [mN/m] | mass density ([1]; 308.15 K) [kg/m3] | viscosity ([1]; 308.15 K) [mPa·s] | surface tension liquid-gas ([1]; 318.15 K) [mN/m] | mass density ([1]; 318.15 K) [kg/m3] | viscosity ([1]; 318.15 K) [mPa·s] | refractive index ([2]; 298.15 K) | refractive index ([2]; 308.15 K) | refractive index ([2]; 318.15 K) | surface tension liquid-gas ([3]; 298.15 K) [mN/m] | mass density ([3]; 298.15 K) [kg/m3] | viscosity ([3]; 298.15 K) [mPa·s] | surface tension liquid-gas ([3]; 308.15 K) [mN/m] | mass density ([3]; 308.15 K) [kg/m3] | viscosity ([3]; 308.15 K) [mPa·s] | surface tension liquid-gas ([3]; 318.15 K) [mN/m] | mass density ([3]; 318.15 K) [kg/m3] | also measured
1 | OCCc1ccccc1 [2-phenylethanol] | 39.43 ± 0.58 | 1016.2 ± 0.39 | 11.4 ± 0.14 | 38.93 ± 0.57 | 1008.63 ± 0.37 | 7.518 ± 0.098 | 38.35 ± 0.56 | 1000.98 ± 0.36 | 5.232 ± 0.071 | 1.53269 ± 0.00037 | 1.52852 ± 0.00037 | 1.52427 ± 0.00037 | – | – | – | – | – | – | – | – | –
2 | OCc1ccccc1 [benzenemethanol] | 38.63 ± 0.54 | 1041.4 ± 0.29 | 5.555 ± 0.071 | 37.73 ± 0.53 | 1033.6 ± 0.27 | 4.093 ± 0.054 | 36.75 ± 0.52 | 1025.72 ± 0.26 | 3.12 ± 0.041 | 1.53843 ± 0.00033 | 1.53421 ± 0.00033 | 1.52994 ± 0.00033 | – | – | – | – | – | – | – | – | –
3 | OCc1ccccc1 [benzenemethanol] + OCCc1ccccc1 | – | – | – | – | – | – | – | – | – | – | – | – | 38.63 ± 0.54 | 1041.4 ± 0.29 | 5.555 ± 0.071 | 37.73 ± 0.53 | 1033.6 ± 0.27 | 4.093 ± 0.054 | 36.75 ± 0.52 | 1025.72 ± 0.26 | viscosity ([3]; 318.15 K): 3.12 ± 0.041 mPa·s; refractive index ([4]; 298.15 K): 1.53843 ± 0.00033; refractive index ([4]; 308.15 K): 1.53421 ± 0.00033; refractive index ([4]; 318.15 K): 1.52994 ± 0.00033
4 | CC(C)O [propan-2-ol] | 20.85 ± 0.32 | 781.17 ± 0.61 | 2.082 ± 0.028 | 20.05 ± 0.31 | 772.53 ± 0.63 | 1.55 ± 0.021 | 19.35 ± 0.31 | 763.52 ± 0.65 | 1.181 ± 0.016 | 1.37507 ± 0.00033 | 1.37063 ± 0.00033 | 1.3661 ± 0.00033 | – | – | – | – | – | – | – | – | –
5 | CC(C)O [propan-2-ol] + OCCc1ccccc1 | – | – | – | – | – | – | – | – | – | – | – | – | 20.85 ± 0.32 | 781.17 ± 0.61 | 2.082 ± 0.028 | 20.05 ± 0.31 | 772.53 ± 0.63 | 1.55 ± 0.021 | 19.35 ± 0.31 | 763.52 ± 0.65 | viscosity ([3]; 318.15 K): 1.181 ± 0.016 mPa·s; refractive index ([4]; 298.15 K): 1.37507 ± 0.00033; refractive index ([4]; 308.15 K): 1.37063 ± 0.00033; refractive index ([4]; 318.15 K): 1.3661 ± 0.00033
6 | CC(C)O [propan-2-ol] + OCc1ccccc1 | – | – | – | – | – | – | – | – | – | – | – | – | 20.85 ± 0.32 | 781.17 ± 0.61 | 2.082 ± 0.028 | 20.05 ± 0.31 | 772.53 ± 0.63 | 1.55 ± 0.021 | 19.35 ± 0.31 | 763.52 ± 0.65 | viscosity ([3]; 318.15 K): 1.181 ± 0.016 mPa·s; refractive index ([4]; 298.15 K): 1.37507 ± 0.00033; refractive index ([4]; 308.15 K): 1.37063 ± 0.00033; refractive index ([4]; 318.15 K): 1.3661 ± 0.00033
